Consider 21 compounds from ChEMBL document CHEMBL1201862, “PubChem BioAssay data set” (2004).

Molecules are shown by their SMILES. Active and inactive are the calls of the source.

Experiment [1] addresses T1, Fatty acid synthase (Homo sapiens, UniProt P49327). In words: inhibition of human FAS-TE enzyme activity – biochemical, kinetic fluorescence intensity, dose response (AID 624326).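 Also: rate of fluorescence rise from hydrolysis of a fluorogenic O-methyl fluorescein ester substrate.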 The format is functional.
Experiment [2] concerns the target T1, Fatty acid synthase. In words: inhibition of human FAS-TE enzyme activity – biochemical, endpoint fluorescence intensity, uHTS hits, dose response (AID 624327).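 Also: fluorescence from hydrolysis of an O-methyl fluorescein acyl ester substrate by the enzyme.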 In kind it is functional.
The target of the next experiment is Genome polyprotein (dengue virus type 2, UniProt P29990). In words: flavivirus cap methylation enzyme inhibition – biochemical, confirmation dose response, primary screen (AID 588689). In kind it is functional.
A short description of experiment [3]: Trypanosoma cruzi growth suppression in host cells – NIH3T3 host cells, beta-gal luminescence, confirmation (AID 2044).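 Also: intracellular parasites grown in NIH/3T3 mouse fibroblasts as host cells; luminescent beta-galactosidase reporter signal from transgenic T. cruzi replicating inside host cells; inhibitors lower the luminescence signal.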 In kind it is functional, cell-based.
Experiment [4] in a line: NIH3T3 cell viability loss – ATP luminescence, mouse fibroblasts, counter-screen, dose response (AID 2010).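 Also: cells exposed to compound for about 90 hours before reading.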 In kind it is functional, cell-based.
Experiment [5] deals with Induced myeloid leukemia cell differentiation protein Mcl-1 (Homo sapiens, UniProt Q07820). The format is functional.
Experiment [6] deals with T2, Heat shock factor protein 1 (Mus musculus, UniProt P38532).
T2 sequence (P38532 whole entry): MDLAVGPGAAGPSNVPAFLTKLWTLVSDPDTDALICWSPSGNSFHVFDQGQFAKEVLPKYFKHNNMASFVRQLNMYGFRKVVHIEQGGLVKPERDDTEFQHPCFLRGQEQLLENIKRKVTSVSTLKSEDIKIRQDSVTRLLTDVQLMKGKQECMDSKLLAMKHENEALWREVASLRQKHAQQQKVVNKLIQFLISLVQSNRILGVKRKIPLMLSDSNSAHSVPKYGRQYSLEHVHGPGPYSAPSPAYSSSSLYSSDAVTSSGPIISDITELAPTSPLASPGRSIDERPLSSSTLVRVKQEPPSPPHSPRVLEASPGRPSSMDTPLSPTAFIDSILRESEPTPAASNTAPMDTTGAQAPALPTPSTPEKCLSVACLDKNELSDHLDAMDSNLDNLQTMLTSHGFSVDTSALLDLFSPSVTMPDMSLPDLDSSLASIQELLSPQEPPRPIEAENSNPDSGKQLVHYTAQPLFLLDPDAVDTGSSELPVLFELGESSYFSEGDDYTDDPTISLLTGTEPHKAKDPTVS
In words: decrease of HSF1-responsive luciferase luminescence – cell-based, NIH3T3, dose retest, confirmation (AID 2382).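 Also: NIH3T3 fibroblasts with HSF1-driven luciferase reporter stressed by proteasome inhibitor MG132; luminescence from HSF1-driven luciferase expression after 8 hours of MG132 stress.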 The format is functional.

A short description of experiment [7]: cells. The format is functional, cell-based.
Experiment [8] can be described thus: cells. In kind it is functional, cell-based. This is another data set of the same source.
Experiment [9] is described as follows: HIV-1 AD8 envelope cell-cell fusion blockers – cherry-pick, dose response (AID 652062).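 Also: luciferase signal from cell-cell fusion driven by HIV-1 clade B AD8 Env; potency is for inhibitors of fusion seen as a drop in luminescence.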 The format is functional, cell-based.
A short description of experiment [10]: off-target signal loss in HeLa-CEM21 co-culture – HeLa F-luc CTL cells, cherry-picked, counter-screen for HIV-1 Env fusion inhibitor project, dose response (AID 652040).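 Also: potency for signal decrease marking cytotoxic or nonspecific inhibition.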 The format is functional, cell-based. (A counterscreen serves to expose hits that act by an unwanted route or on another target.)
Experiment [11] in a line: blockers of HIV-1 ZM109 envelope-driven cell-cell fusion – HeLa effector, CEM target cells, luciferase, cherry-pick, dose response (AID 652058).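 Also: luciferase signal from HIV-1 Env mediated cell-cell fusion of effector and target cells.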 The format is functional, cell-based.
Experiment [12] in a line: blockers of HIV-1 envelope-mediated cell-cell fusion – cherry-pick, dose response (AID 652057). In kind it is functional, cell-based.
The target in another experiment is T3, Protein RecA (Mycobacterium tuberculosis, UniProt P9WHJ3).
T3 sequence (P9WHJ3 whole entry): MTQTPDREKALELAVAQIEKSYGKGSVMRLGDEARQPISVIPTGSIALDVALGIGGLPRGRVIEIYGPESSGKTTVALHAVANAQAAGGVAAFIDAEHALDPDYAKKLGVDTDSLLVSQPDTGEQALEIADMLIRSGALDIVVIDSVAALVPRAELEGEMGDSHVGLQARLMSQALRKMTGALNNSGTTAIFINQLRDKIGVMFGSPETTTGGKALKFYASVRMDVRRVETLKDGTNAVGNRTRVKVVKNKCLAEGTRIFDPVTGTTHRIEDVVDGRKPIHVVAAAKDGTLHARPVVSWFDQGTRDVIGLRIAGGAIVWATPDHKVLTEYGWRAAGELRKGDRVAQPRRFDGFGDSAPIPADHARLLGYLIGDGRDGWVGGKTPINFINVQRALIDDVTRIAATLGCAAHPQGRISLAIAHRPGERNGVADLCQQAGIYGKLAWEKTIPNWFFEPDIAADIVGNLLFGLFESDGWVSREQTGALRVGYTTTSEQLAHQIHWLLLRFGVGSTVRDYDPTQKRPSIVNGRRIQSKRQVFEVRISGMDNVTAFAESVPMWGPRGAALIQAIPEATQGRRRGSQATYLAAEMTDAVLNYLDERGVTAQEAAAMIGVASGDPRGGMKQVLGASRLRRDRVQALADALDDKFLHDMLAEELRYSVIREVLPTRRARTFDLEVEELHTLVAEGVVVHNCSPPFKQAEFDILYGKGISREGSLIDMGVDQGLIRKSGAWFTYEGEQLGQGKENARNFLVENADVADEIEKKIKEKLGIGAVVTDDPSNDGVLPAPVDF
In words: Fluorescence Cell-Free Homogeneous Dose Retest to Identify Inhibitors of RecA-Intein Splicing Activity. [Related pubchem assays (depositor defined):AID2097, AID2223, AID489010, AID492950]. In kind it is functional.

The target of experiment [13] is T4, Replicative DNA helicase DnaB (Mycobacterium tuberculosis, UniProt P9WMR3).
T4 sequence (P9WMR3 whole entry): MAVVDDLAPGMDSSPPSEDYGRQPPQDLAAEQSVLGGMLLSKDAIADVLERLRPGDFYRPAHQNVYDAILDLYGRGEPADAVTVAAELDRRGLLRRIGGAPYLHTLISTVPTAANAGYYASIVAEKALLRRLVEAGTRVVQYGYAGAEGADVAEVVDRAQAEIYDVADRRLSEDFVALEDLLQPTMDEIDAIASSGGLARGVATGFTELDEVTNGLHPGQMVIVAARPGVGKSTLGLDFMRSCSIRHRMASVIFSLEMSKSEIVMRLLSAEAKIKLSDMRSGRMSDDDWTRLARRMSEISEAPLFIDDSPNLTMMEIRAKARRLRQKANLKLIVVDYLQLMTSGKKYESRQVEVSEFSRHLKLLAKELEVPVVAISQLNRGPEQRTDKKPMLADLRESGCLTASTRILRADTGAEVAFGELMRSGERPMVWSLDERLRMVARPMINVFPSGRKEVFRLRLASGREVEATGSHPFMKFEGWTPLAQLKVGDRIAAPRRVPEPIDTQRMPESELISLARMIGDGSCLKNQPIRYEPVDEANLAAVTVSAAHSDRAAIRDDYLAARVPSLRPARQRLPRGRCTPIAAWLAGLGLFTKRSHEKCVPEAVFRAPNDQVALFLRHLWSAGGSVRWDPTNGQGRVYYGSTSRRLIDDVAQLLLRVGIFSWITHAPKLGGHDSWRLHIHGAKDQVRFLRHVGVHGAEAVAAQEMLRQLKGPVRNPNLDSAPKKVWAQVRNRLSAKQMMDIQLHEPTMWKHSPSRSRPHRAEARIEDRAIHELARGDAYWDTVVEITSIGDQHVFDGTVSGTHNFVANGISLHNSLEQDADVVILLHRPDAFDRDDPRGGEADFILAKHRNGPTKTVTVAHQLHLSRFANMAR
In words: DnaB intein splicing inhibitors, dose response, biochemical, cell-free fluorescence (AID 449749). The format is functional.

Experiment [14] has as its target FAD-linked sulfhydryl oxidase ALR (Homo sapiens, UniProt P55789). The experiment is described as follows: ALR-catalysed DTT oxidation blockers – biochemical, H2O2 detection, luminescence, cherry-pick, dose response (AID 493248).

T1 sequence (P49327 whole entry): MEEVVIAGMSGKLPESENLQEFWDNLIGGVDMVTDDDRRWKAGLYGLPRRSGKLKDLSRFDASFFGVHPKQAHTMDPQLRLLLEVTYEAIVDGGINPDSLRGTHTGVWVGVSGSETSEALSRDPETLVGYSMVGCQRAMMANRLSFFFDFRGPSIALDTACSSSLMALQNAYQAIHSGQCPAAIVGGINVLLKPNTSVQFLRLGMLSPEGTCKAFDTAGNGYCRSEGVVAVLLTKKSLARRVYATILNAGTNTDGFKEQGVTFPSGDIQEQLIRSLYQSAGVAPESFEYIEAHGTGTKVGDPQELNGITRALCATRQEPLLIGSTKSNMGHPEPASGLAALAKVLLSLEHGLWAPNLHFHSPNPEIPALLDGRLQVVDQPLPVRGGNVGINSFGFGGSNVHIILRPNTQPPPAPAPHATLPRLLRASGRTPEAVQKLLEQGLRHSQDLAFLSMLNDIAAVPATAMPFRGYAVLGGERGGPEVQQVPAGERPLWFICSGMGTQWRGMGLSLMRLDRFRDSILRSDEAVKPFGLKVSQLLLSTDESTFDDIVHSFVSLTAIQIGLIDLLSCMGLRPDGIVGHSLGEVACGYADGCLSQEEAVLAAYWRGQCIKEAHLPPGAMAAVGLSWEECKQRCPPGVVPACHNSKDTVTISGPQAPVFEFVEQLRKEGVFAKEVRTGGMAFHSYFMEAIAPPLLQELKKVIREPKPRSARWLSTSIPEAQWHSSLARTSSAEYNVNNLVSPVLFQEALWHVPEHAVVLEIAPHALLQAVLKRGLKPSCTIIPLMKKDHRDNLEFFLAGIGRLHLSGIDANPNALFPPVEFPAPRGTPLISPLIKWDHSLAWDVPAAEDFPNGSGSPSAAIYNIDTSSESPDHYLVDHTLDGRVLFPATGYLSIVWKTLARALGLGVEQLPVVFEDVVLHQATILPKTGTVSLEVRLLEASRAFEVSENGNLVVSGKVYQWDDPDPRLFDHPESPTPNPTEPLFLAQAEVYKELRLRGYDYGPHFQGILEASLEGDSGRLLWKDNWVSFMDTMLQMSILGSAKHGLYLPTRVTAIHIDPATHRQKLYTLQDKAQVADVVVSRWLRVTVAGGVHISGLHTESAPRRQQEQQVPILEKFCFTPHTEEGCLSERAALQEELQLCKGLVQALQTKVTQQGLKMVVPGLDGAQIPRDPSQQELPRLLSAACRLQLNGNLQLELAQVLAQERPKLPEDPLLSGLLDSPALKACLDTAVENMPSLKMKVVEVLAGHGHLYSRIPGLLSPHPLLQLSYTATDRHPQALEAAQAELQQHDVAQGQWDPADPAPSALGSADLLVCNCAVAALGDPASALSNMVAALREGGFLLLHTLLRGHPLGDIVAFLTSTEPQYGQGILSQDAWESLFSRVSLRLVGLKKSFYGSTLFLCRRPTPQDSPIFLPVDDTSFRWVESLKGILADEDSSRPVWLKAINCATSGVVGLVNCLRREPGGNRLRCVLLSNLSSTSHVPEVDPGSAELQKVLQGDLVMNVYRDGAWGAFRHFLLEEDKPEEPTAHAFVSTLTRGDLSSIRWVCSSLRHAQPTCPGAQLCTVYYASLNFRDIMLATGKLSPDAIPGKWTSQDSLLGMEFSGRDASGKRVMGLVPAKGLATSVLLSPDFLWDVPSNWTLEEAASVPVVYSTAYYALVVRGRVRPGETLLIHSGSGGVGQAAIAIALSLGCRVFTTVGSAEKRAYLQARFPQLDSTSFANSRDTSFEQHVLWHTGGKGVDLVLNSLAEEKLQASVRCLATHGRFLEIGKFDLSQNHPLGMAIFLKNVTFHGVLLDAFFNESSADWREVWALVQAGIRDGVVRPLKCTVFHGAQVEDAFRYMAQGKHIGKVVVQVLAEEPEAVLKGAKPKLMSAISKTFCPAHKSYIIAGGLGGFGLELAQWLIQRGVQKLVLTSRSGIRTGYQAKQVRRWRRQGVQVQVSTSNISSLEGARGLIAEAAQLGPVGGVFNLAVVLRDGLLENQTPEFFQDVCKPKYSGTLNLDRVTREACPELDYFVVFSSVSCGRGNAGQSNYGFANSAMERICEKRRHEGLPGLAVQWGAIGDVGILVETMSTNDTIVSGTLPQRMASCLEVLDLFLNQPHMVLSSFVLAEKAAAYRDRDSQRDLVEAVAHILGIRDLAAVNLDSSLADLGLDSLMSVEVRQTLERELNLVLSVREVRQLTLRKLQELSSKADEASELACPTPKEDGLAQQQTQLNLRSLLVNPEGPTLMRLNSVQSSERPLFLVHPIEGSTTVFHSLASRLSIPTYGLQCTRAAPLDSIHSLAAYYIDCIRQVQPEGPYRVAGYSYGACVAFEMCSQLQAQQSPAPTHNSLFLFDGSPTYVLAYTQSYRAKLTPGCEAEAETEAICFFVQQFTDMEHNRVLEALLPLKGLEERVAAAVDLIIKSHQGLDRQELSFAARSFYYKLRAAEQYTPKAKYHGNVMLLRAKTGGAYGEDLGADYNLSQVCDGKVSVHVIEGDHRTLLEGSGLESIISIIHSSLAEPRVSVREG
Sequence of Genome polyprotein (P29990 2492-3391 limits assumed): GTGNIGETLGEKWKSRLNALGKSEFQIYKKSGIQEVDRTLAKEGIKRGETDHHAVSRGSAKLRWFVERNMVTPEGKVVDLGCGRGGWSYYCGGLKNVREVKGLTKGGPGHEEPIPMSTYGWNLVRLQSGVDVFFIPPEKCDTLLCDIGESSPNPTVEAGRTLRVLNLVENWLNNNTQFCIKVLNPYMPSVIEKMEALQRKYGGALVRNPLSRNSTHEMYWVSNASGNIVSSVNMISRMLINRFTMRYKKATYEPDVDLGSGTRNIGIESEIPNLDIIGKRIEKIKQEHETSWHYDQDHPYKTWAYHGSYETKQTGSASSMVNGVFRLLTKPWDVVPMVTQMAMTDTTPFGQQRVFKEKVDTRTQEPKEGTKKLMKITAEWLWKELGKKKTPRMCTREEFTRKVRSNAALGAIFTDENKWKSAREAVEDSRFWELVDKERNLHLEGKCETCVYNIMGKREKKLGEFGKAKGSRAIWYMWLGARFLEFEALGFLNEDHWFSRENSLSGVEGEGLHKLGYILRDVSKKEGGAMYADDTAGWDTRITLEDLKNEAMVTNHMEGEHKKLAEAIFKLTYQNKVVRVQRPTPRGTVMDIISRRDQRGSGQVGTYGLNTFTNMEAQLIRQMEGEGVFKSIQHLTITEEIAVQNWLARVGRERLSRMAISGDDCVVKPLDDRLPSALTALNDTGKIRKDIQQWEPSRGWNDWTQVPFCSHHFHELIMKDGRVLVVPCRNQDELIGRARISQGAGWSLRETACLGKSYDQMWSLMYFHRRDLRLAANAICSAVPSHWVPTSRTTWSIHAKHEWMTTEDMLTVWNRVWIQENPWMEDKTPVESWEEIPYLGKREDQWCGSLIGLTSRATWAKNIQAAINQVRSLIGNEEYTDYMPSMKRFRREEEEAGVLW
Sequence of Induced myeloid leukemia cell differentiation protein Mcl-1 (Q07820 whole entry): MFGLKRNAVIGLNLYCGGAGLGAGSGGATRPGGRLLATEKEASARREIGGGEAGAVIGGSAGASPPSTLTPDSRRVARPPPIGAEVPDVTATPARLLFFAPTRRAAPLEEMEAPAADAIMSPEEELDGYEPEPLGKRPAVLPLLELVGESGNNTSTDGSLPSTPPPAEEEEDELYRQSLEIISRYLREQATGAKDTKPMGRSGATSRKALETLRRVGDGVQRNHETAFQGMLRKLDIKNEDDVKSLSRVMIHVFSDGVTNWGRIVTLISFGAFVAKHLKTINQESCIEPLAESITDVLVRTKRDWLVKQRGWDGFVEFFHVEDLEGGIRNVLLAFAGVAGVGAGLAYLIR
Sequence of FAD-linked sulfhydryl oxidase ALR (P55789 whole entry): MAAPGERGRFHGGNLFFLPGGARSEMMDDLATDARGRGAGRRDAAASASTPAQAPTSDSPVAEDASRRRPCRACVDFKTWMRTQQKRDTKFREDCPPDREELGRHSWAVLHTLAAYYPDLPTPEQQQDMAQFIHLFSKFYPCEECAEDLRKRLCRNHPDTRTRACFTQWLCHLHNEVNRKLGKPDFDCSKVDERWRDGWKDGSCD

Usually IC50 stands for the concentration at which inhibition is half-maximal. Regarding `COc1ccc(C(=O)Nn2c(SCc3cccc([N+](=O)[O-])c3)nc3ccccc3c2=O)cc1`, the IC50 on Fatty acid synthase [1] was 14.3 µM (active); on Fatty acid synthase [2], 17.5 µM (active).
For the compound `O=C(O)/C=C/C(=O)c1c(-c2ccccc2)[nH]c2ccccc12`, the IC50 at Genome polyprotein is > 100 µM (active).
Take `O=C1NC(=O)C(=Cc2cc(Cl)ccc2OCc2ccc(C(=O)O)cc2)C(=O)N1`: the IC50 at Genome polyprotein is 20.7 µM (active).
By EC50 is commonly meant the midpoint of the concentration-response curve. For `O=C(Cn1cnc2cc([N+](=O)[O-])ccc2c1=O)Nc1ccc2c(c1)OCO2`, the EC50 was 2.31 µM (active) in experiment [3] and > 60 µM (not active) in experiment [4]. Also, the values for the IC50 at Fatty acid synthase [1] and on Fatty acid synthase [2] were 3.65 µM (active) and 4.19 µM (active), respectively.
On to `CC(C)OC(=O)/C(C#N)=C/c1cn(C)c2ccccc12`, for which the IC50 on Fatty acid synthase [1] was 11.1 µM (active); at Fatty acid synthase [2], 13.8 µM (active).
In the case of `C=CCOC(=O)/C(=C\c1ccccc1)NC(=O)c1ccc(C)cc1`, the IC50 in experiment [5] is on record as 2.49 µM (not active).
Consider `CC(CCc1ccccc1)NC(=O)c1cccc([N+](=O)[O-])c1` (stereo not given), for which the IC50 on Fatty acid synthase [1] is 7.07 µM (active); at Fatty acid synthase [2] it was 6.29 µM (active). Also, the EC50 in experiment [6] is given as > 195 µM (not active).
Consider `COc1ccc2cc(C(C)C(=O)N3CCC(C(N)=O)CC3)ccc2c1` (stereo not given), for which the EC50 in the experiment “cells [7]” and in the experiment “cells [8]” was > 350 µM (not active) in each case.
As usually defined, the AC50 is the concentration giving half of the maximal activity seen. `CCN(CC)c1nc(Nc2ccccc2)nc(Oc2ccc(O)nn2)n1`: the AC50 in experiment [9] was 9.57 µM (active); in experiment [10] it was 5.99 µM (active); in experiment [11] it was 9.89 µM (active); in experiment [12], 6.13 µM (active).
`CC(=O)Nc1ccc2c(c1)CCCC2=O`: the EC50 in “cells [7]” and in “cells [8]” was > 350 µM (not active) in each case.
Take `O=C(Nc1ncc2c(n1)-c1ccccc1OC2)c1cccc([N+](=O)[O-])c1`: the IC50 on Fatty acid synthase [1] is 13 µM (active); on Fatty acid synthase [2], 9.93 µM (active).
Take `COc1ccc(/C=C(\C#N)c2nc3ccccc3[nH]2)cc1O`: the 50% effective concentration (EC50) in “cells [7]” is > 350 µM (not active); in the experiment “cells [8]”, 8.05 µM (active).
`O=C(CCN1C(=O)/C(=C/c2ccccc2Cl)SC1=S)Nc1ccccn1`: the results for the IC50 on Fatty acid synthase [1] and on Fatty acid synthase [2] were 1.96 µM (active) and 6.7 µM (active), respectively.
On to `COc1cccc(-n2c(SCC(=O)N3CCOCC3)nc3c4ccccc4nc-3c2O)c1`, for which the EC50 in the experiment “cells [7]” and in “cells [8]” was > 350 µM (not active) in each case.
For the compound `C=C1CCN([C@@H](CC(C)C)C(=O)Nc2ccc(OC)cc2)S(=O)(=O)c2ccccc21`, the AC50 in [9] was 3.63 µM (active); in experiment [10], 4.03 µM (active); in [11], 2.47 µM (active); in experiment [12], 2.12 µM (active).
Turning to `COC(=O)Nc1ccc(S(=O)(=O)N(C)C)cc1`, the EC50 in “cells [7]” and in “cells [8]” was > 350 µM (not active) throughout.
As to `O=C(C[C@H]1C[C@H](C(=O)N2CCOCC2)[C@@]2(CCC3CCCC3)c3[nH]c4ccc(Cl)cc4c3CCN2C1=O)NCCc1ccccn1`, the half-inhibitory concentration (IC50) at Fatty acid synthase [1] is 1.15 µM (active); at Fatty acid synthase [2], 1.03 µM (active).
In the case of `CCc1ccccc1N1C(=O)C(Cl)=C(N2CCOCC2)C1=O`, the EC50 at Protein RecA was 4.01 µM (active). For the same compound, the AC50 in [13] was 6.57 µM (active). Moreover, on Genome polyprotein, the IC50 is 83.2 µM (active).
`CC(NC(=O)CN(C)CC(=O)Nc1ccc(Cl)c(C(F)(F)F)c1)c1ccccc1` (stereo not given): the AC50 in experiment [9] is 14.9 µM (active); in experiment [10], 15.7 µM (active); in experiment [11], 8.39 µM (active); in experiment [12], 4.06 µM (active).
Turning to `Cc1cccc(NC(=O)C2CCN(S(=O)(=O)c3ccc4c(c3)OCCCO4)CC2)n1`, the AC50 in experiment [9] was 13.1 µM (active); in experiment [10] it was 42.2 µM (active); in experiment [12], 66.2 µM (active).
On to `Cc1ccc(C(=O)Nc2ccccc2C(=O)O)cc1S(=O)(=O)Nc1ccc(Br)cc1`, for which the IC50 at Genome polyprotein was 49.8 µM (active). Besides, in experiment [14], the AC50 was 0.628 µM (active).
